PubChem BioAssay AID248 (DTP/NCI, 2004)
Where “and” joins values, the source holds several entries; their conditions need not be identical. Equal entries are not always repeated. Toxic doses and inconclusive results are not listed.

Tested on: L1210 leukemia ip in BDF1 mice, survival T/C
Experiment: NCI In Vivo Anticancer Drug Screen. Data for tumor model L1210 Leukemia (intraperitoneal) in B6D2F1 (BDF1) mice
Details: endpoint: mean survival time, higher = longer survival
Procedure, shortened: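 Antitumor effect is assessed in tumor-bearing animals. Survival in the compound arm is compared with a vehicle-dosed control arm and expressed as their quotient.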

[1] = dose: 100.0 mg/kg/injection, schedule: Q01DX001 (ip), vehicle: saline
[2] = dose: 100.0 mg/kg/injection, schedule: Q04DX003 (ip), vehicle: saline
[3] = dose: 200.0 mg/kg/injection, schedule: Q01DX001 (ip), vehicle: saline
[4] = dose: 200.0 mg/kg/injection, schedule: Q04DX003 (ip), vehicle: saline
[5] = dose: 400.0 mg/kg/injection, schedule: Q01DX001 (ip), vehicle: saline
[6] = dose: 400.0 mg/kg/injection, schedule: Q04DX003 (ip), vehicle: saline
[7] = dose: 100.0 mg/kg/injection, schedule: Q04DX002 (ip), vehicle: Klucel (hydroxypropylcellulose) (HPC)
[8] = dose: 200.0 mg/kg/injection, schedule: Q04DX002 (ip), vehicle: Klucel (hydroxypropylcellulose) (HPC)
[9] = dose: 400.0 mg/kg/injection, schedule: Q04DX002 (ip), vehicle: Klucel (hydroxypropylcellulose) (HPC)
[10] = dose: 100.0 mg/kg/injection, schedule: Q01DX009 (ip), vehicle: Klucel (hydroxypropylcellulose) (HPC)
[11] = dose: 200.0 mg/kg/injection, schedule: Q01DX009 (ip), vehicle: Klucel (hydroxypropylcellulose) (HPC)
[12] = dose: 100.0 mg/kg/injection, schedule: Q01DX001 (ip), vehicle: carboxymethylcellulose (CMC)
[13] = dose: 200.0 mg/kg/injection, schedule: Q01DX001 (ip), vehicle: carboxymethylcellulose (CMC)
[14] = dose: 400.0 mg/kg/injection, schedule: Q01DX001 (ip), vehicle: carboxymethylcellulose (CMC)
[15] = dose: 100.0 mg/kg/injection, schedule: Q01DX009 (ip), vehicle: saline with Tween-80
[16] = dose: 200.0 mg/kg/injection, schedule: Q01DX009 (ip), vehicle: saline with Tween-80
[17] = dose: 50.0 mg/kg/injection, schedule: Q01DX009 (ip), vehicle: saline with Tween-80

`CC(=O)OC1=CC2(OC(C)=O)CC1C1C(=O)OC(=O)C12` (centres undefined) was tested, and the T/C [1] was 101 % of control, the T/C [2] was 96 % of control and the T/C [3] was 98 % of control. For the same compound, the T/C [4] was 96 % of control, the T/C [5] was 88 % of control and the T/C [6] was 86 % of control.

For `CCCCCCCCCCCCCCCCCC[n+]1ccccc1`, the T/C (dose: 0.09 mg/kg/injection, schedule: Q01DX009 (ip), vehicle: saline with Tween-80) was 89 % of control, the T/C (dose: 0.19 mg/kg/injection, schedule: Q01DX009 (ip), vehicle: saline with Tween-80) was 99 % of control and the T/C (dose: 0.39 mg/kg/injection, schedule: Q01DX009 (ip), vehicle: saline with Tween-80) was 96 % of control.

For `Cc1cc(C)c2c(c1)C/C2=N\O`, the T/C [7] was 106 % of control, the T/C [8] was 106 % of control and the T/C [9] was 103 % of control.

For `NS(=O)(=O)c1ccc(N=Nc2ncc[nH]2)cc1`, the T/C (dose: 50.0 mg/kg/injection, schedule: Q01DX009 (ip), vehicle: Klucel (hydroxypropylcellulose) (HPC)) was 94 % of control, the T/C [10] was 94 % of control and the T/C [11] was 94 % of control.

In the case of `CC1C(C)(C)C1(F)Cl` (centres undefined), the T/C [12] is reported as 95 % of control, the T/C [13] is reported as 103 % of control and the T/C [14] is reported as 108 % of control.

For `COc1cc(/C=C\C(=O)O)cc(Cl)c1O`, the T/C (dose: 50.0 mg/kg/injection, schedule: Q01DX009 (ip), vehicle: saline + alcohol) was 94 % of control, the T/C (dose: 100.0 mg/kg/injection, schedule: Q01DX009 (ip), vehicle: saline + alcohol) was 101 % of control and the T/C (dose: 200.0 mg/kg/injection, schedule: Q01DX009 (ip), vehicle: saline + alcohol) was 105 % of control.

`CCCCCCCCCCCC[N+](C)(C)Cc1ccccc1` (tested in a mixture with another compound) was tested, and the T/C (dose: 2.0 mg/kg/injection, schedule: Q01DX015 (ip), vehicle: saline) was 105 % of control, the T/C (dose: 4.0 mg/kg/injection, schedule: Q01DX015 (ip), vehicle: saline) was 94 % of control and the T/C (dose: 8.0 mg/kg/injection, schedule: Q01DX015 (ip), vehicle: saline) was 103 % of control.

With `CC(C)CCSc1nc(N)nc2nc[nH]c12` the T/C (dose: 62.5 mg/kg/injection, schedule: Q01DX Z (ip), vehicle: carboxymethylcellulose (CMC)) was 122 % of control, the T/C (dose: 125.0 mg/kg/injection, schedule: Q01DX Z (ip), vehicle: carboxymethylcellulose (CMC)) was 107 % of control and the T/C (dose: 250.0 mg/kg/injection, schedule: Q01DX Z (ip), vehicle: carboxymethylcellulose (CMC)) was 100 % of control.

For `Cc1ccc(C(=O)c2ccccc2N)cc1C`, the T/C [12] was 100 % of control, the T/C [13] was 116 % of control and the T/C [14] was 102 % of control.

For `Cc1ccc(N2CSC(=S)N(c3ccc(C)cc3)C2)cc1`, the T/C [10] was 101 % of control, the T/C [2] was 94 % of control and the T/C [11] was 96 % of control. For the same compound, the T/C [4] was 89 % of control, the T/C (dose: 400.0 mg/kg/injection, schedule: Q01DX009 (ip), vehicle: Klucel (hydroxypropylcellulose) (HPC)) was 95 % of control and the T/C [6] was 88 % of control.

`O=C(CNC(=O)Nc1ccc(C2=NCCN2)cc1)Nc1ccc(C2=NCCN2)cc1` was tested, and the T/C (dose: 4.5 mg/kg/injection, schedule: Q01DX Z (ip), vehicle: carboxymethylcellulose (CMC)) was 117 % of control, the T/C (dose: 9.0 mg/kg/injection, schedule: Q01DX Z (ip), vehicle: carboxymethylcellulose (CMC)) was 159 % of control and the T/C (dose: 18.0 mg/kg/injection, schedule: Q01DX Z (ip), vehicle: carboxymethylcellulose (CMC)) was 247 % of control. For the same compound, the T/C (dose: 36.0 mg/kg/injection, schedule: Q01DX Z (ip), vehicle: carboxymethylcellulose (CMC)) was 192 % of control, the T/C (dose: 50.0 mg/kg/injection, schedule: Q01DX Z (oral), vehicle: water) was 98 % of control and the T/C (dose: 100.0 mg/kg/injection, schedule: Q01DX Z (oral), vehicle: water) was 115 % of control. The T/C (dose: 200.0 mg/kg/injection, schedule: Q01DX Z (oral), vehicle: water) was 119 % of control and the T/C (dose: 400.0 mg/kg/injection, schedule: Q01DX Z (oral), vehicle: water) was 150 % of control.

In the case of `Nc1ncnc2c1nnn2C1CC(CO)C(O)C1O` (centres undefined), the T/C (dose: 50.0 mg/kg/injection, schedule: Q04DX003 (ip), vehicle: other) is reported as 112 % of control, the T/C (dose: 67.0 mg/kg/injection, schedule: Q01DX009 (ip), vehicle: saline with Tween-80) is reported as 122 % of control and the T/C (dose: 67.0 mg/kg/injection, schedule: Q04DX003 (ip), vehicle: other) is reported as 106 % of control. For the same compound, the T/C [15] was 118 % of control, the T/C (dose: 100.0 mg/kg/injection, schedule: Q04DX003 (ip), vehicle: other) was 114 % of control and the T/C (dose: 150.0 mg/kg/injection, schedule: Q01DX009 (ip), vehicle: saline with Tween-80) was 118 % of control. For the same compound, the T/C (dose: 150.0 mg/kg/injection, schedule: Q04DX003 (ip), vehicle: other) was 111 % of control and the T/C (dose: 200.0 mg/kg/injection, schedule: Q04DX003 (ip), vehicle: other) was 123 % of control.

For `CN1C(=O)N(C)C(=O)C2(C1=O)C1(C(=O)N(C)C(=O)N(C)C1=O)C21C(=O)N(C)C(=O)N(C)C1=O`, the T/C [7] was 102 % of control, the T/C [8] was 100 % of control and the T/C [9] was 89 % of control.

With `O=C(Nc1cc(C(F)(F)F)ccc1Cl)N(Cc1ccccc1)c1ccccc1` the T/C [7] was 93 % of control and 108 % of control, the T/C [8] was 98 % of control and 118 % of control and the T/C [9] was 98 % of control. For the same compound, the T/C (dose: 800.0 mg/kg/injection, schedule: Q04DX002 (ip), vehicle: Klucel (hydroxypropylcellulose) (HPC)) was 94 % of control.

In the case of `N#Cc1ncc(-c2ccc(Cl)cc2)nc1Cl`, the T/C (dose: 100.0 mg/kg/injection, schedule: Q01DX009 (ip), vehicle: saline) is reported as 105 % of control, the T/C [2] is reported as 91 % of control and the T/C (dose: 200.0 mg/kg/injection, schedule: Q01DX009 (ip), vehicle: saline) is reported as 113 % of control. The T/C [4] was 93 % of control and the T/C [6] was 95 % of control.

`CCCSc1ccccc1N1CCNCC1` was tested, and the T/C (dose: 50.0 mg/kg/injection, schedule: Q01DX001 (ip), vehicle: saline) was 103 % of control, the T/C [1] was 101 % of control and the T/C [3] was 101 % of control. The T/C [5] was 103 % of control.

`O=C(N/N=C/c1cccnc1)C(O)C(O)C(O)C(O)CO` (centres undefined) was tested, and the T/C [1] was 100 % of control, the T/C [3] was 103 % of control and the T/C [5] was 93 % of control.

In the case of `O=C(N/N=C/c1ccc(-c2ccccc2)cc1)Nc1ccccc1`, the T/C [15] is reported as 92 % of control, the T/C (dose: 100.0 mg/kg/injection, schedule: Q04DX003 (ip), vehicle: saline with Tween-80) is reported as 92 % of control and the T/C [16] is reported as 96 % of control. The T/C (dose: 200.0 mg/kg/injection, schedule: Q04DX003 (ip), vehicle: saline with Tween-80) was 100 % of control and the T/C (dose: 400.0 mg/kg/injection, schedule: Q04DX003 (ip), vehicle: saline with Tween-80) was 93 % of control.

For `CCCCCCCCCCCC(CCCCCCCC)C1CCCCC1` (centres undefined), the T/C (dose: 100.0 mg/kg/injection, schedule: Q01DX001 (ip), vehicle: saline + alcohol) was 101 % of control, the T/C (dose: 200.0 mg/kg/injection, schedule: Q01DX001 (ip), vehicle: saline + alcohol) was 103 % of control and the T/C (dose: 400.0 mg/kg/injection, schedule: Q01DX001 (ip), vehicle: saline + alcohol) was 108 % of control.

`C/C=C/CCCCC` was tested, and the T/C [17] was 102 % of control, the T/C [15] was 118 % of control and the T/C [16] was 94 % of control.

In the case of `CC(C)(C=O)C(=O)Nc1ccccc1`, the T/C (dose: 100.0 mg/kg/injection, schedule: Q04DX002 (ip), vehicle: saline) is reported as 103 % of control, the T/C (dose: 200.0 mg/kg/injection, schedule: Q04DX002 (ip), vehicle: saline) is reported as 106 % of control and the T/C (dose: 400.0 mg/kg/injection, schedule: Q04DX002 (ip), vehicle: saline) is reported as 103 % of control.

With `CC1=C2CCC(C)C23C2C(=O)OC(=O)C2C1C1C(=O)OC(=O)C13` (centres undefined) the T/C (dose: 12.5 mg/kg/injection, schedule: Q01DX009 (ip), vehicle: saline) was 107 % of control, the T/C (dose: 25.0 mg/kg/injection, schedule: Q01DX009 (ip), vehicle: saline) was 102 % of control and the T/C (dose: 50.0 mg/kg/injection, schedule: Q01DX009 (ip), vehicle: saline) was 103 % of control.

For `COc1ccc2c(c1)CCC1C2=CC(=O)CC1c1ccco1` (centres undefined), the T/C (dose: 100.0 mg/kg/injection, schedule: Q04DX003 (ip), vehicle: Klucel (hydroxypropylcellulose) (HPC)) was 102 % of control, the T/C (dose: 200.0 mg/kg/injection, schedule: Q04DX003 (ip), vehicle: Klucel (hydroxypropylcellulose) (HPC)) was 93 % of control and the T/C (dose: 400.0 mg/kg/injection, schedule: Q04DX003 (ip), vehicle: Klucel (hydroxypropylcellulose) (HPC)) was 88 % of control.

`COC1CC2C=CC1C2` (centres undefined) was tested, and the T/C [17] was 92 % of control, the T/C [15] was 89 % of control and the T/C [16] was 92 % of control.
